Test results as given in patent US20260146236A1, “HUMAN SEBACEOUS GLAND CARCINOMA CELL LINE AND US THEREOF” (SHANGHAI NINTH PEOPLE'S HOSPITAL, SHANGHAI JIAOTONG …, priority 2023, published 2026).
Read-outs that look alike come from different tables or passages of the source.

Legend:
[1] = tested on: sebaceous gland carcinoma cell line SHNPH-SeC; assay: Drug sensitivity test of SHNPH-SeC cells (CCK-8 cell viability); type: cell-based, human; settings: 48 h, cell viability by CCK-8, read-out: Half-maximal effective concentration (EC50)
Method: Cells in a logarithmic growth phase were harvested and prepared into a cell suspension at a concentration of 2×10^4 cells/mL. The cell suspension was inoculated into a 96-well plate at 100 μL/well. The cell proliferation in the 96-well plate was measured by the CCK-8 method on day 0, day 1, day 2, day 3, and day 4. The CCK-8 method was performed according to instructions of a kit. Specifically, a sample was incubated with 10 μL of a CCK-8 solution for 2 h in a 37° C. and 5% CO2 incubator, and an OD value was then measured at 450 nm. As shown in the growth curve of FIG. 3A, the sebaceous gland carcinoma cell line SHNPH-SeC required a doubling time of approximately 36 h, indicating a strong proliferative capacity.
Cells in a logarithmic growth phase were collected and prepared into a cell suspension with a concentration of 2×10^4 cells/mL. […] When a cell density reached approximately 80%, MMC was added to each well at concentrations of 0 μmol/L, 0.15625 μmol/L, 0.3125 μmol/L, 0.625 μmol/L, 1.25 μmol/L, 2.5 μmol/L, 5 μmol/L, 10 μmol/L, and 20 μmol/L or 5-FU was added to each well at concentrations of 0 μmol/L, 5 μmol/L, 10 μmol/L, 20 μmol/L, 40 μmol/L, 80 μmol/L, 160 μmol/L, 320 μmol/L, and 640 μmol/L. 48 h later, a cell viability in each well was detected by the CCK-8 method, with a specific process as described in section 2.3. […]

[2] = tested on: sebaceous gland carcinoma cell line BP50 without a TP53 mutation; settings: BP50 cells without a TP53 mutation, previously reported; cited from earlier work

Row | EC50 ([1]; Homo sapiens) | Compound | EC50 [1] | EC50 [2]
1 | 83 µM | O=c1[nH]cc(F)c(=O)[nH]1 [5-FU, 5-fluorouracil] | – | –
2 | – | CO[C@@]12[C@H](COC(N)=O)C3=C(C(=O)C(C)=C(N)C3=O)N1C[C@@H]1N[C@@H]12 [MMC, mitomycin C] | 1.13 µM | 10.4 µM
